Data from BindingDB's records for patent US20250074891 (Anaxis Pharma, 2025).

Tests used:
Assay in all cases: In Vitro Assay
[1] = target: T1, Mixed lineage kinase domain-like protein (Homo sapiens, UniProt Q8NB16)
T1 sequence (Q8NB16 whole entry): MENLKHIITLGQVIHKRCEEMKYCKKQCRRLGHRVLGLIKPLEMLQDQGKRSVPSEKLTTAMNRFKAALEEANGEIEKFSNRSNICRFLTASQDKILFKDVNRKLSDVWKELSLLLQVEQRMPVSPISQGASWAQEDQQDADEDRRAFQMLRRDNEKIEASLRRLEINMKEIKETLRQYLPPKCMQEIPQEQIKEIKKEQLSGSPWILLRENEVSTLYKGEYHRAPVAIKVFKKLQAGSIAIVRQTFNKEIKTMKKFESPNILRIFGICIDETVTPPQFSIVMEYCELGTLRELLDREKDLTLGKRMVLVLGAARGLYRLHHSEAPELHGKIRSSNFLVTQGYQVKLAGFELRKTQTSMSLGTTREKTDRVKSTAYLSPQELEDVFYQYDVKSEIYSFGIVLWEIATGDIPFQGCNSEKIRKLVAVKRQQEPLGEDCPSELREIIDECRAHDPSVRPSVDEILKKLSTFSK
Experimental: (§1) Kinase assays. For most assays, kinase-tagged T7 phage strains were grown in parallel in 24-well blocks in an E. coli host derived from the BL21 strain. E. coli were grown to log-phase and infected with T7 phage from a frozen stock (multiplicity of infection=0.4) and incubated with shaking at 32° C. until lysis (90-150 minutes).

[2] = target: T2, Receptor-interacting serine/threonine-protein kinase 1 (Homo sapiens, UniProt Q13546)
T2 sequence (Q13546 whole entry): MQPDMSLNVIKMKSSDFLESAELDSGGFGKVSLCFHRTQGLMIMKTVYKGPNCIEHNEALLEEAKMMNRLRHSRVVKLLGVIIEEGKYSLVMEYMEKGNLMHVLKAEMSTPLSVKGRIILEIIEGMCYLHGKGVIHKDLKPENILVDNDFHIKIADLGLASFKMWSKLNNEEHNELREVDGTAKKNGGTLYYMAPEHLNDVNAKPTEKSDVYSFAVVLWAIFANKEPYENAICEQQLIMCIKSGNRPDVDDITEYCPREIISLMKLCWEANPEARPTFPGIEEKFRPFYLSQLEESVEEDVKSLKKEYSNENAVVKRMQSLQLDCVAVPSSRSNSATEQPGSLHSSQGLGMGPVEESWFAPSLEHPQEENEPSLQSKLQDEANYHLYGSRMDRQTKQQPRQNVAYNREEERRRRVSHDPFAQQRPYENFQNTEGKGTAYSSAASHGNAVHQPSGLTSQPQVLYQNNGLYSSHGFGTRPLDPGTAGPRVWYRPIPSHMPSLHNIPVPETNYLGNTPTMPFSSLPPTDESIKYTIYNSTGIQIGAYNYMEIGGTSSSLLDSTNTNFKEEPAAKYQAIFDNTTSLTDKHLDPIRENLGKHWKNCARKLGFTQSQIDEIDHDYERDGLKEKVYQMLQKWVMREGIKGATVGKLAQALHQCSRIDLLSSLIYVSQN
Experimental: as §1

[3] = target: Receptor-interacting serine/threonine-protein kinase 3 (Homo sapiens, UniProt Q9Y572)
Experimental: as §1

Sequence of Receptor-interacting serine/threonine-protein kinase 3 (Q9Y572 whole entry): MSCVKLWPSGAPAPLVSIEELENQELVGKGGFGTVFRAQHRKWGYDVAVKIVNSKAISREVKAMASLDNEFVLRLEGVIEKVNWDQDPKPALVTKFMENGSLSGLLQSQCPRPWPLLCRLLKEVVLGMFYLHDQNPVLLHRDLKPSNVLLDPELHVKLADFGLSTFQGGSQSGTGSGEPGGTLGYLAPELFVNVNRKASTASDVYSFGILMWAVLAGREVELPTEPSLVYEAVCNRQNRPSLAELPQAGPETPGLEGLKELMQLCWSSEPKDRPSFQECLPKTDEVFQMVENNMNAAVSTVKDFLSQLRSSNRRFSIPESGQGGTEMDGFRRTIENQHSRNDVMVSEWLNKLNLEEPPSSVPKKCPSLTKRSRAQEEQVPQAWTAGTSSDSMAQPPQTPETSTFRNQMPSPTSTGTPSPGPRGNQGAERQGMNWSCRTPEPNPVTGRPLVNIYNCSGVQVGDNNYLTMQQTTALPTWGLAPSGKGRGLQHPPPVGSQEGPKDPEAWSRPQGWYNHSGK

Row | Kd [1] | Kd [2] | Kd [3] | Structure (SMILES)
1 | in the range around 505 nM | > 30 µM | > 30 µM | NC(=O)c1c(-c2ccc(NS(=O)(=O)CC(F)(F)F)c(OCc3ccc(F)cc3)c2)n[nH]c1Nc1cccc(C(F)(F)F)n1
2 | – | > 30 µM | > 30 µM | NC(=O)c1c(-c2ccc(NS(=O)(=O)Cc3ccc(Cl)cc3)cc2)n[nH]c1Nc1cccc(C(F)(F)F)n1 [US20250074891, Compound 60]
3 | < 10 nM | > 30 µM | – | CCS(=O)(=O)Nc1ccc(-c2n[nH]c(Nc3cccc(C(F)F)n3)c2C(N)=O)cc1 [US20250074891, Compound 92]
4 | < 10 nM | > 30 µM | > 30 µM | CCOc1nccc(Nc2[nH]nc(-c3ccc(NS(=O)(=O)CC)cc3)c2C(N)=O)n1 [US20250074891, Compound 98]
5 | < 10 nM | > 30 µM | > 30 µM | CCS(=O)(=O)Nc1ccc(-c2n[nH]c(Nc3cnccn3)c2C(N)=O)cc1OC1CCCc2cc(F)ccc21 (stereo not given) [US20250074891, Compound 224]
6 | < 10 nM | > 30 µM | > 30 µM | C[C@H](Oc1cc(-c2n[nH]c(Nc3cc(C4(C)CCOCC4)on3)c2C(N)=O)ccc1NS(=O)(=O)C(F)F)c1ccc(F)cc1 [US20250074891, Compound 301]
7 | < 10 nM | > 30 µM | > 30 µM | C[C@H](Oc1cc(-c2n[nH]c(Nc3cc(C4CC4)on3)c2C(N)=O)ccc1NS(=O)(=O)C(F)F)c1ccc(F)cc1 [US20250074891, Compound 310]
8 | < 10 nM | – | – | Cc1ncsc1-c1ccc(CNC(=O)[C@@H]2C[C@@H](O)CN2C(=O)[C@@H](NC(=O)CCCCOc2ccc(Nc3[nH]nc(-c4ccc(NS(=O)(=O)C(F)F)c(OCc5ccc(F)cc5)c4)c3C(N)=O)nc2)C(C)(C)C)cc1 [US20250074891, Compound 1025]
